Test results from patent publication US20220089679A1, “FUSION PROTEIN WITH IMMUNOSUPPRESSIVE ACTIVITY” (FUNDACIÓ INSTITUT D'INVESTIGACIÓ BIOMÈDICA DE BELL, priority 2019, published 2022).

Columns and labels:
NZB/W F1 hybrid mice = assay: Murine lupus nephritis; assay type: in vivo; conditions: for mortality / survival: up to the end of experiments at 32 weeks, Hybri 20 mg/kg ip days 0, 4, 14, 28, 56, 84, CYP 50 mg/kg ip every 10 days, versus PBS
From the text: NZB/W F1 hybrid mice spontaneously develop a disease closely resembling human systemic lupus erythematous (SLE) with severe renal involvement, which is the main cause of animal mortality. In fact, this model, with a well-characterized evolution of renal disease, has been widely used to study the therapeutic potential of several new agents for SLE, as previously reported (Ripoll et al., “CD40 gene silencing reduces the progression of experimental lupus nephritis modulating local milieu and systemic mechanisms”, PLoS One, 2013, vol. 8(6)).
From 20 weeks of age, and close to a potential therapeutic schedule in humans, mice (n=9) received Hybri intraperitoneally (ip) at 20 mg/kg on days 0, 4, 14, 28, 56 and 84; or CYP (n=8) ip. at 50 mg/kg every 10 days; or 200 μl PBS ip. twice a week (n=8).

[1] = system: Lewis rats transplanted with a single kidney from a Wistar donor rat; assay: Rat renal allotransplantation (life-sustaining renal transplantation model); assay type: in vivo; conditions: 500 μg intraperitoneally 2 hours before transplantation, then daily for 6 days, followed for 3 weeks, versus non-treated group, p<0.05
From the text: A model of life-sustaining renal transplantation previously described (De Ramon et al., “CD154-CD40 T-cell co-stimulation pathway is a key mechanism in kidney ischemia-reperfusion injury”, Kidney Int., 2015, vol. 88(3), pp. 538-49) was used to test the therapeutic effects of the fusion protein. It is known that in experimental renal transplantation with highly alloreactive donor-recipient combination, severe acute rejection results in high recipients' mortality.
Briefly, Lewis rats were bi-nephrectomized and subsequently transplanted with a single kidney from a Wistar donor rat. […] In the control group, recipient Lewis rats received no treatment. Transplanted rats were followed for 3 weeks.

[2] = system: Wistar rats with 40 minutes of bilateral renal ischemia
Method: Rats were sham operated or suffered from renal warm ischemia and were treated with the fusion protein of the invention of sequence SEQ ID NO: 6 (Hybri) at 20 mg/kg ip. 24 hours before renal ischemia; and in the control ischemic group rats received PBS.

[3] = system: CD3+ T cell proliferation; assay: Mixed lymphocyte reaction (MLR) in vitro proliferation assay; assay type: cell-based, human; conditions: for decrease of CD3+ cells proliferation: 6 days, as compared to spontaneous proliferation without immunosuppressive agents (MLR), two responder subjects
Method: Mixed Lymphocyte reactions (MLR) were performed in the presence or absence of different immunosuppressive drugs to test their inhibitory effect on T cell proliferation, following conventional methodology (Levitsky J, et al., “Allospecific regulatory effects of sirolimus and tacrolimus in the human mixed lymphocyte reaction”, Transplantation, 2011, vol. 91(2), pp. 199-206).
Briefly, peripheral blood mononuclear cells (PBMC) from healthy controls were used as responder cells. CD3^+-depleted splenocytes extracted from deceased donors and mature dendritic cells (DCs) were extracted with CD2 positive selection cocktail (Stem Cell Technologies, France) following manufacturer's instructions and they were used as stimulators in the assay. PBMC from peripheral blood samples and splenocytes were isolated by standard Ficoll density gradient centrifugation (Bargalló M E. et al., “Utility of Systematic Isolation of immune cell subsets from HIV-infected individuals for miRNA profiling”, J Immunol Methods, 2017, vol. 442, pp. 12-19). In order to obtain mature DCs, monocytes were isolated from PBMC by negative selection with Human monocyte enrichment kit (Stem Cell Technologies, France) following manufacturer's instructions, cultured for 6 days with complete Ex-vivo medium supplemented with 2% of human serum (Sigma Aldrich), GMSF (15 ng/ml; R&D) and IL-4 (10 ng/ml; Sigma Aldrich) (37° C. 5% CO2), and stimulated with LPS (1 μg/ml; Sigma Aldrich) for 24 h.
First, PBMC were stained with carboxyfluorescein succinimidyl ester (CFSE) (Lloberas N, et al., “Dendritic cells phenotype fitting under hypoxia or lipopolysaccharide; adenosine 5′-triphosphate-binding cassette transporters far beyond an efflux pump”, Clin Exp Immunol., 2013, vol. 172(3), pp. 444-54). […] At day 6, cells were harvested and stained for CD3-APC and CD4-PE (BD Bioscience, San Jose, Calif., USA) 20 minutes in the dark following manufacturer's instructions, and T-cell proliferation were analyzed by flow cytometry (BD FACS CANTO 11, San Jose, Calif., USA) using Facs Diva software and following manufacturer's instructions.
The in vitro proliferation assay was performed with high HLA-mismatch combination between 2 stimulator DCs and two corresponding responder subjects ([…], S2) T cells.

## O=P1(N(CCCl)CCCl)NCCCO1 (stereo not shown) [CYP, cyclophosphamide, reference compound]
NZB/W F1 hybrid mice; at 3 months of therapy
  albuminuria (albuminuria/creatininuria ratio): reducing albuminuria
NZB/W F1 hybrid mice
  mortality / survival: no mortality

## Hybri: fusion protein of human PDL2 extracellular domain, (GGGGS)3 linker, human CTLA4 extracellular domain, Fc of human IgG, poly-histidine tag; SEQ ID NO: 6
NZB/W F1 hybrid mice; FIG. 8B
  anti-DNA antibodies in serum: effectively reduced anti-DNA antibodies to similar levels than CYP
NZB/W F1 hybrid mice; mouse, in vivo
  albuminuria (albuminuria/creatininuria ratio): as efficient as CYP in reducing albuminuria
NZB/W F1 hybrid mice
  mortality / survival: no mortality
NZB/W F1 hybrid mice; listed as fusion polypeptide
  mortality / survival: strongly improved the survival
[1]
  survival: significantly higher survival
[1]; listed as fusion polypeptide
  survival: strongly improved the survival
[2]; 20 mg/kg ip. 24 hours before renal ischemia
  preservation of renal structure: better preservation of renal structure
[2]; 20 mg/kg ip. 24 hours before renal ischemia, 24 hours after warm ischemia, versus PBS, p=0.0038
  renal function (serum creatinine levels): significantly improved renal function
[2]; compared to non-treated ischemic kidneys
  T cells with regulatory phenotype (Tregs) per high power field in renal parenchyma: increased
[2]; rat, in vivo
  renal failure in sham operated rats: did not develop renal failure
[3]; 10 μg/mL and 20 μg/mL, compared with tacrolimus (10 nM), FIG. 5
  inhibition of mature CD3+ T cell proliferation (in words): strongly inhibit
[3]; 10 μg/mL
  decrease of CD3+ cells proliferation: 97%-99%
[3]; 20 μg/mL
  decrease of CD3+ cells proliferation: 94%-99%
[3]; summary statement of FIG. 5
  reduction in T cell proliferation (immunosuppressive effect, FIG. 5): nearly complete
